Measured values: ChEMBL document CHEMBL1275384, “Structure-activity relationships of benzimidazole-based selective inhibitors of the mitogen activated kinase-5 signaling pathway” (2010)

Columns and labels:
IGROV-1 = assay: Cytotoxicity against human IGROV1 cells at 10 uM assessed as cell growth relative to control; type: functional; conditions: read-out: Activity
SF-268 = assay: Cytotoxicity against human SF268 cells at 10 uM assessed as cell growth relative to control; type: functional; conditions: read-out: Activity
SK-MEL-5 = assay: Cytotoxicity against human SK-MEL-5 cells at 10 uM assessed as cell growth relative to control; type: functional; conditions: read-out: Activity
[1] = target: Dual specificity mitogen-activated protein kinase kinase; MEK1/2 (Homo sapiens) (UniProt P36507+Q02750); conditions: HEK293, at 10 µM
Chain of Dual specificity mitogen-activated protein kinase kinase; MEK1/2 (Homo sapiens) (P36507 whole entry, looked up): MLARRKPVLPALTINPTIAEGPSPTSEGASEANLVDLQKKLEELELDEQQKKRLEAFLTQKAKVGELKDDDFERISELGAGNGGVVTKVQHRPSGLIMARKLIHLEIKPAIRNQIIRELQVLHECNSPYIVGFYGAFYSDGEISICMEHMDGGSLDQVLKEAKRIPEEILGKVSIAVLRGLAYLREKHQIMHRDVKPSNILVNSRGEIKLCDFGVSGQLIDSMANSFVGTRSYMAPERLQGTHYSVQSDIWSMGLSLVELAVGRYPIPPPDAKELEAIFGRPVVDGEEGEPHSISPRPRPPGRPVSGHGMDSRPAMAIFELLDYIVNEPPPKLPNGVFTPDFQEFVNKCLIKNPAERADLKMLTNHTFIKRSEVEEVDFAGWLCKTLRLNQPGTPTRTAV
Chain of Dual specificity mitogen-activated protein kinase kinase; MEK1/2 (Homo sapiens) (Q02750 whole entry, looked up): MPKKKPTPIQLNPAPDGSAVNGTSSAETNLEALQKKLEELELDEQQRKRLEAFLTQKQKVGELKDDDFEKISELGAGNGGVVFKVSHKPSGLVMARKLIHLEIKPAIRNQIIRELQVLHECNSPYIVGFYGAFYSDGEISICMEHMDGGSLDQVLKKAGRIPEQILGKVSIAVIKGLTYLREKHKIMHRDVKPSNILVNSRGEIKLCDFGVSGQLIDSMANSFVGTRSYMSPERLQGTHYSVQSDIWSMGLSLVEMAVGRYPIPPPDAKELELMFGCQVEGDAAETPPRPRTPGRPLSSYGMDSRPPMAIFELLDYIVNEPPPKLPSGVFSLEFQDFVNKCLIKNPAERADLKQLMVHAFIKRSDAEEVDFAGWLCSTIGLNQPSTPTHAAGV
Description: Inhibition of EGF-induced MEK1/2 activity in HEK293 cells assessed as phosphorylated ERK1/2 level at 10 uM after 1 hr by Western blotting relative to control

Malme-3M = assay: Cytotoxicity against human MALME-3M cells at 10 uM assessed as cell growth relative to control; type: functional; conditions: read-out: Activity
RXF 393 = assay: Cytotoxicity against human RXF393 cells at 10 uM assessed as cell growth relative to control; type: functional; conditions: read-out: Activity
NCI-H322M = assay: Cytotoxicity against human NCI-H322M cells at 10 uM assessed as cell growth relative to control; type: functional; conditions: read-out: Activity
NCI-H23 = assay: Cytotoxicity against human NCI-H23 cells at 10 uM assessed as cell growth relative to control; type: functional; conditions: read-out: Activity
SR = assay: Cytotoxicity against human SR cells at 10 uM assessed as cell growth relative to control; type: functional; conditions: read-out: Activity
MDA-MB-231 = assay: Cytotoxicity against human MDA-MB-231 cells at 10 uM assessed as cell growth relative to control; type: functional; conditions: read-out: Activity
OVCAR-5 = assay: Cytotoxicity against human OVCAR5 cells at 10 uM assessed as cell growth relative to control; type: functional; conditions: read-out: Activity
SN12C = assay: Cytotoxicity against human SN12C cells at 10 uM assessed as cell growth relative to control; type: functional; conditions: read-out: Activity
EKVX = assay: Cytotoxicity against human EKVX cells at 10 uM assessed as cell growth relative to control; type: functional; conditions: read-out: Activity
ACHN = assay: Cytotoxicity against human ACHN cells at 10 uM assessed as cell growth relative to control; type: functional; conditions: read-out: Activity
MDA-MB-435 = assay: Cytotoxicity against human MDA-MB-435 cells at 10 uM assessed as cell growth relative to control; type: functional; conditions: read-out: Activity
OVCAR-3 = assay: Cytotoxicity against human OVCAR-3 cells at 10 uM assessed as cell growth relative to control; type: functional; conditions: read-out: Activity
PC-3 = assay: Cytotoxicity against human PC3 cells at 10 uM assessed as cell growth relative to control; type: functional; conditions: read-out: Activity

Row | SMILES | growth at 10 µM (IGROV-1) [%] | growth at 10 µM (SF-268) [%] | growth at 10 µM (SK-MEL-5) [%] | inhibition [1] [%] | growth at 10 µM (Malme-3M) [%] | growth at 10 µM (RXF 393) [%] | growth at 10 µM (NCI-H322M) [%] | growth at 10 µM (NCI-H23) [%] | growth at 10 µM (SR) [%] | growth at 10 µM (MDA-MB-231) [%] | growth at 10 µM (OVCAR-5) [%] | growth at 10 µM (SN12C) [%] | growth at 10 µM (EKVX) [%] | growth at 10 µM (ACHN) [%] | growth at 10 µM (MDA-MB-435) [%] | growth at 10 µM (OVCAR-3) [%] | growth at 10 µM (PC-3) [%]
1 | COc1cc(NCc2ccccc2)c2ncn(C(C)C)c2c1 | 92.4 | 125 | 122 | 54 | 49.2 | 91.2 | 115 | 91.1 | 51.7 | 111 | 97.2 | 104 | 93.9 | 106 | 122 | 104 | 
2 | COCCCOc1cc(NCc2ccccc2)c2ncn(C(C)C)c2c1 | 90.1 | 96.7 | 95.8 |  | 113 | 94.3 | 104 | 109 | 103 | 102 | 91.5 | 90.8 | 95.4 | 95.3 | 110 | 84.9 | 96.1
